Measured values reported in US12173007B2, “Imidazopyridazine IL-17 inhibitor compounds” (Janssen Pharmaceutica NV, priority 2021, dated 2024).

How the values were obtained:
[1] = biological target: IL-17A(FLAG-Tagged): IL-17RA(His-Tagged) binding (Homo sapiens, UniProt Q16552, K93Q); assay: IL-17A(FLAG-tagged):IL-17RA(His-tagged) binding disruption Eu-HTRF assay, Protocol 2; details: FLAG-IL-17A 1 nM; average if tested more than once
In short: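 FLAG-tagged IL-17A (1 nM final) was preincubated with compound (2-fold serial dilutions, 22 points) for 1 h at rt in PBS + 0.01% Triton X-100. 10×His-IL-17RA, Eu-anti-FLAG and D2-anti-His in buffer containing KF were then added for 2 h at rt. IC50 came from the 665/615 nm HTRF ratio fitted to a one-site competition model.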

[2] = system: IL-17A-induced G-CSF production in human normal keratinocyte (NHK); assay: NHK assay: IL-17A-induced G-CSF production in normal human keratinocytes; type: cell-based; details: Homo sapiens, Keratinocyte, 24 h, IL-17A 5 ng/mL, G-CSF by HTRF, average if tested more than once
In short: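 Stimulus rhIL-17A 5 ng/mL final, premixed 1 h rt with compound; adult NHK, 5% FBS, 0.2% DMSO. Viability by CellTiter-Glo vs DMSO.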

Chain of UniProt Q16552 (Q16552 with tags, fused parts or gaps K93Q): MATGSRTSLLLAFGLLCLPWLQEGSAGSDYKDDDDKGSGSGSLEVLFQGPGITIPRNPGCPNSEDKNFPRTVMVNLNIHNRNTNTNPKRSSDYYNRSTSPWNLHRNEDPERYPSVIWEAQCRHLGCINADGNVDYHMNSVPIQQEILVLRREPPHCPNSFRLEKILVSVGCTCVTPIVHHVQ

SMILES	IC50 [1]	IC50 [2]
[2H]C1([2H])NC(=O)N([C@H](COC)c2cnn3cc([C@H](CCC(C)(C)C(F)(F)F)NC(=O)c4nonc4C(F)(F)F)nc3c2)C([2H])([2H])C1(F)F [Example 83, N—((S)-1-(7-((S)-1-(5,5-Difluoro-2-oxotetrahydropyrimidin-1(2H)-yl-4,4,6,6-d4)-2-methoxyethyl)imidazo[1,2-b]pyridazin-2-yl)-5,5,5-trifluoro-4,4-dimethylpentyl)-4-(trifluoromethyl)-1,2,5-oxadiazole-3-carboxamide]	< 50 nM	< 50 nM
COC[C@H](c1cnn2cc([C@@H](NC(=O)c3nonc3C)C(C3CC3)C3CC3)nc2c1)N1CC(F)(F)CNC1=O [Example 102, N—((S)-2,2-Dicyclopropyl-1-(7-((S)-1-(5,5-difluoro-2-oxotetrahydropyrimidin-1(2H)-yl)-2-methoxyethyl)imidazo[1,2-b]pyridazin-2-yl)ethyl)-4-methyl-1,2,5-oxadiazole-3-carboxamide]	< 50 nM	< 50 nM
COC[C@H](c1cnn2cc([C@@H](NC(=O)c3nocc3CC(F)(F)F)C3CCC(F)(F)CC3)nc2c1)N1CC(F)(F)CNC1=O [Example 106, N—((S)-(7-((S)-1-(5,5-Difluoro-2-oxotetrahydropyrimidin-1(2H)-yl)-2-methoxyethyl)imidazo[1,2-b]pyridazin-2-yl)(4,4-difluorocyclohexyl)methyl)-4-(2,2,2-trifluoroethyl)isoxazole-3-carboxamide]	< 50 nM	< 50 nM
[2H]C1([2H])NC(=O)N([C@H](COC2CC2)c2cnn3cc([C@@H](NC(=O)c4nocc4CC(F)(F)F)C4CCC(F)(F)CC4)nc3c2)C([2H])([2H])C1(F)F [Example 107, N—((S)-(7-((S)-2-Cyclopropoxy-1-(5,5-difluoro-2-oxotetrahydropyrimidin-1(2H)-yl-4,4,6,6-d4)ethyl)imidazo[1,2-b]pyridazin-2-yl)(4,4-difluorocyclohexyl)methyl)-4-(2,2,2-trifluoroethyl)isoxazole-3-carboxamide]	< 50 nM	< 50 nM
COC[C@H](c1cnn2cc([C@H](CCC(C)(C)C(F)(F)F)NC(=O)c3nonc3OC)nc2c1)N1CC(F)(F)CNC1=O [Example 109, N—((S)-1-(7-((S)-1-(5,5-Difluoro-2-oxotetrahydropyrimidin-1(2H)-yl)-2-methoxyethyl)imidazo[1,2-b]pyridazin-2-yl)-5,5,5-trifluoro-4,4-dimethylpentyl)-4-methoxy-1,2,5-oxadiazole-3-carboxamide]	< 50 nM	< 50 nM
COC[C@H](c1cnn2cc([C@H](CCC(C)(C)C(F)(F)F)NC(=O)c3nonc3C(F)F)nc2c1)N1CC(F)(F)CNC1=O [Example 110, N—((S)-1-(7-((S)-1-(5,5-Difluoro-2-oxotetrahydropyrimidin-1(2H)-yl)-2-methoxyethyl)imidazo[1,2-b]pyridazin-2-yl)-5,5,5-trifluoro-4,4-dimethylpentyl)-4-(difluoromethyl)-1,2,5-oxadiazole-3-carboxamide]	< 50 nM	< 50 nM
COC[C@H](c1cnn2cc([C@H](CCC(C)(C)C(F)(F)F)NC(=O)c3ncnn3C(C)C)nc2c1)N1CC(F)(F)CNC1=O [Example 111, N—((S)-1-(7-((S)-1-(5,5-Difluoro-2-oxotetrahydropyrimidin-1(2H)-yl)-2-methoxyethyl)imidazo[1,2-b]pyridazin-2-yl)-5,5,5-trifluoro-4,4-dimethylpentyl)-1-isopropyl-1H-1,2,4-triazole-5-carboxamide]	< 50 nM	< 50 nM
[2H]C1([2H])NC(=O)N([C@H](COC)c2cnn3cc([C@H](CCC(C)(C)C(F)(F)F)NC(=O)c4ncnn4C(C)C)nc3c2)C([2H])([2H])C1(F)F [Example 112, N—((S)-1-(7-((S)-1-(5,5-Difluoro-2-oxotetrahydropyrimidin-1(2H)-yl-4,4,6,6-d4)-2-methoxyethyl)imidazo[1,2-b]pyridazin-2-yl)-5,5,5-trifluoro-4,4-dimethylpentyl)-1-isopropyl-1H-1,2,4-triazole-5-carboxamide]	< 50 nM	50 to 100 nM
COc1nonc1C(=O)N[C@@H](CCC(C)(C)C(F)(F)F)c1cn2ncc(CN3CC(F)(F)CNC3=O)cc2n1 [Example 113, (S)—N-(1-(7-((5,5-Difluoro-2-oxotetrahydropyrimidin-1(2H)-yl)methyl)imidazo[1,2-b]pyridazin-2-yl)-5,5,5-trifluoro-4,4-dimethylpentyl)-4-methoxy-1,2,5-oxadiazole-3-carboxamide]	< 50 nM	< 50 nM
CC(C)(CC[C@H](NC(=O)c1nonc1C1CC1)c1cn2ncc(CN3CC(F)(F)CNC3=O)cc2n1)C(F)(F)F [Example 114, (S)-4-Cyclopropyl-N-(1-(7-((5,5-difluoro-2-oxotetrahydropyrimidin-1(2H)-yl)methyl)imidazo[1,2-b]pyridazin-2-yl)-5,5,5-trifluoro-4,4-dimethylpentyl)-1,2,5-oxadiazole-3-carboxamide]	< 50 nM	< 50 nM
Cc1nonc1C(=O)N[C@@H](CCC(C)(C)C(F)(F)F)c1cn2ncc(CN3CC(F)(F)CNC3=O)cc2n1 [Example 115, (S)—N-(1-(7-((5,5-Difluoro-2-oxotetrahydropyrimidin-1(2H)-yl)methyl)imidazo[1,2-b]pyridazin-2-yl)-5,5,5-trifluoro-4,4-dimethylpentyl)-4-methyl-1,2,5-oxadiazole-3-carboxamide]	< 50 nM	50 to 100 nM
COc1nonc1C(=O)N[C@@H](CCC(C)(C)C(F)(F)F)c1cn2ncc([C@@H](COC3CC3)N3CC(F)(F)CNC3=O)cc2n1 [Example 122, N—((S)-1-(7-((S)-2-Cyclopropoxy-1-(5,5-difluoro-2-oxotetrahydropyrimidin-1(2H)-yl)ethyl)imidazo[1,2-b]pyridazin-2-yl)-5,5,5-trifluoro-4,4-dimethylpentyl)-4-methoxy-1,2,5-oxadiazole-3-carboxamide]	< 50 nM	< 50 nM

More lines, main results first:

IC50 [1]	SMILES	IC50 [2]
< 50 nM	COC[C@H](c1cnn2cc([C@@H](NC(=O)c3nonc3C(F)(F)F)C3CCC(F)(F)CC3)nc2c1)N1CC(F)(F)CNC1=O [Example 84, N—((S)-(7-((S)-1-(5,5-Difluoro-2-oxotetrahydropyrimidin-1(2H)-yl)-2-methoxyethyl)imidazo[1,2-b]pyridazin-2-yl)(4,4-difluorocyclohexyl)methyl)-4-(trifluoromethyl)-1,2,5-oxadiazole-3-carboxamide]	< 50 nM
< 50 nM	O=C(N[C@H](c1cn2ncc([C@@H](C(F)F)N3CC(F)(F)CNC3=O)cc2n1)C1CCC(F)(F)CC1)c1nonc1C1CC1 [Example 89, 4-Cyclopropyl-N—((S)-(7-((S)-1-(5,5-difluoro-2-oxotetrahydropyrimidin-1(2H)-yl)-2,2-difluoroethyl)imidazo[1,2-b]pyridazin-2-yl)(4,4-difluorocyclohexyl)methyl)-1,2,5-oxadiazole-3-carboxamide]	< 50 nM
< 50 nM	COC[C@H](c1cnn2cc([C@@H](NC(=O)c3nonc3C3CC3)C(C3CC3)C3CC3)nc2c1)N1CC(F)(F)CNC1=O [Example 103, 4-Cyclopropyl-N—((S)-2,2-dicyclopropyl-1-(7-((S)-1-(5,5-difluoro-2-oxotetrahydropyrimidin-1(2H)-yl)-2-methoxyethyl)imidazo[1,2-b]pyridazin-2-yl)ethyl)-1,2,5-oxadiazole-3-carboxamide]	< 50 nM
< 50 nM	COC[C@H](c1cnn2cc([C@@H](NC(=O)c3nonc3OC)C3CCC(F)(F)CC3)nc2c1)N1CC(F)(F)CNC1=O [Example 108, N—((S)-(7-((S)-1-(5,5-Difluoro-2-oxotetrahydropyrimidin-1(2H)-yl)-2-methoxyethyl)imidazo[1,2-b]pyridazin-2-yl)(4,4-difluorocyclohexyl)methyl)-4-methoxy-1,2,5-oxadiazole-3-carboxamide]	< 50 nM
< 50 nM	COC[C@H](c1cnn2cc([C@@H](NC(=O)c3nonc3C)C3CCC(F)(F)CC3)nc2c1)N1CC(F)(F)C(F)(F)CNC1=O [Example 123, N—((S)-(4,4-Difluorocyclohexyl)(7-((S)-2-methoxy-1-(5,5,6,6-tetrafluoro-2-oxo-1,3-diazepan-1-yl)ethyl)imidazo[1,2-b]pyridazin-2-yl)methyl)-4-methyl-1,2,5-oxadiazole-3-carboxamide]	50 to 100 nM
< 50 nM	COC[C@H](c1cnn2cc([C@@H](NC(=O)c3nonc3OC)C3CCC(F)(F)CC3)nc2c1)N1CC(F)(F)C(F)(F)CNC1=O [Example 124, N—((S)-(4,4-Difluorocyclohexyl)(7-((S)-2-methoxy-1-(5,5,6,6-tetrafluoro-2-oxo-1,3-diazepan-1-yl)ethyl)imidazo[1,2-b]pyridazin-2-yl)methyl)-4-methoxy-1,2,5-oxadiazole-3-carboxamide]	50 to 100 nM
< 50 nM	COC[C@H](c1cnn2cc([C@@H](NC(=O)c3nonc3C(C)(F)F)C3CCC(F)(F)CC3)nc2c1)N1CC(F)(F)CNC1=O [Example 127, N—((S)-(7-((S)-1-(5,5-Difluoro-2-oxotetrahydropyrimidin-1(2H)-yl)-2-methoxyethyl)imidazo[1,2-b]pyridazin-2-yl)(4,4-difluorocyclohexyl)methyl)-4-(1,1-difluoroethyl)-1,2,5-oxadiazole-3-carboxamide]	< 50 nM
